From patent US5444042A, “Method of treatment of neurodegeneration with calpain inhibitors” (Cortex Pharmaceuticals, priority 1994, dated 1995)
Blank lines part the entries; values can stand above or below the compound they belong to. Where a SMILES comes first, the peptide text is derived from it.

Experiments:
[1] = target: T1, Calpain I (Homo sapiens, UniProt P07384); experiment: Calpain I 14C-methylated casein proteolysis (Table 1A); type: biochemical
T1 sequence (P07384 1-714): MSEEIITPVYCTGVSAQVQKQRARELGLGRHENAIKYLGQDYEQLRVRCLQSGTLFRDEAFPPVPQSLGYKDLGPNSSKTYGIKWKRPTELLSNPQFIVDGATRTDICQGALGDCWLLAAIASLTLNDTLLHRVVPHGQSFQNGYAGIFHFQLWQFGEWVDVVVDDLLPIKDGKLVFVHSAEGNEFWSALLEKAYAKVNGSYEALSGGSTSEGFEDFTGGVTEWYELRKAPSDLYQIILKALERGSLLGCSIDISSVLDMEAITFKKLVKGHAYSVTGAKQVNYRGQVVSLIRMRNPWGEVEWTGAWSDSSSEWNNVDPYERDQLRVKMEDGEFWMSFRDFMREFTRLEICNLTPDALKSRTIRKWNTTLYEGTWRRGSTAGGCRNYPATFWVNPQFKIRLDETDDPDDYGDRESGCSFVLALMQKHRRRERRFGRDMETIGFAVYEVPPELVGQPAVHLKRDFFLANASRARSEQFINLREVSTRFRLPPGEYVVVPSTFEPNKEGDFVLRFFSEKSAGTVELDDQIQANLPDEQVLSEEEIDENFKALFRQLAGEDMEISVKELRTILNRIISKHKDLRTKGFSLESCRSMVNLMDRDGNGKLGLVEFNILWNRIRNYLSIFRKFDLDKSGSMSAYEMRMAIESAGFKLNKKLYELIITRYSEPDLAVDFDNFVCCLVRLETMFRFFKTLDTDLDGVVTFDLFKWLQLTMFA
T1 sequence (P04632 1-268 partner): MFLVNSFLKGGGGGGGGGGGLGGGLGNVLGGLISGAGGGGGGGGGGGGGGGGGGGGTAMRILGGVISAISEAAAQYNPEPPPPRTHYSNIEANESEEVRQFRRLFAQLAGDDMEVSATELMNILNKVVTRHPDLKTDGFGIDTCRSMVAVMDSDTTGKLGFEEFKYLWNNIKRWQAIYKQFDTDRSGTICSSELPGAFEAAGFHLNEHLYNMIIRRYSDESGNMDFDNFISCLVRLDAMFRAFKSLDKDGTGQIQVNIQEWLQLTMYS
Experimental: (§1) The isocoumarins are irreversible inhibitors of Calpain. We obtained IC50 values for a variety of these Calpain Inhibitors as a kinetic analysis of these compounds.
(§2) Calpains I and II were purified by the method of (Yoshimura, et al. 1983). (Kitahara 1984) provides an alternative purification scheme. Calpain II may alternatively be purchased from Sigma Chemical Co. as "Calcium Activated Neutral Protease." In this assay, purified Calpain was incubated with ^14 C-methylated casein in the presence of various Heterocyclic Compounds and the amount of acid-soluble radioactivity released by the action of Calpain was measured.

[2] = target: T2, Calpain II (Homo sapiens, UniProt P17655); experiment: Calpain II 14C-methylated casein proteolysis (Table 1A); type: biochemical
T2 construct: from tissue; purified by a cited method
T2 sequence (P17655 1-700): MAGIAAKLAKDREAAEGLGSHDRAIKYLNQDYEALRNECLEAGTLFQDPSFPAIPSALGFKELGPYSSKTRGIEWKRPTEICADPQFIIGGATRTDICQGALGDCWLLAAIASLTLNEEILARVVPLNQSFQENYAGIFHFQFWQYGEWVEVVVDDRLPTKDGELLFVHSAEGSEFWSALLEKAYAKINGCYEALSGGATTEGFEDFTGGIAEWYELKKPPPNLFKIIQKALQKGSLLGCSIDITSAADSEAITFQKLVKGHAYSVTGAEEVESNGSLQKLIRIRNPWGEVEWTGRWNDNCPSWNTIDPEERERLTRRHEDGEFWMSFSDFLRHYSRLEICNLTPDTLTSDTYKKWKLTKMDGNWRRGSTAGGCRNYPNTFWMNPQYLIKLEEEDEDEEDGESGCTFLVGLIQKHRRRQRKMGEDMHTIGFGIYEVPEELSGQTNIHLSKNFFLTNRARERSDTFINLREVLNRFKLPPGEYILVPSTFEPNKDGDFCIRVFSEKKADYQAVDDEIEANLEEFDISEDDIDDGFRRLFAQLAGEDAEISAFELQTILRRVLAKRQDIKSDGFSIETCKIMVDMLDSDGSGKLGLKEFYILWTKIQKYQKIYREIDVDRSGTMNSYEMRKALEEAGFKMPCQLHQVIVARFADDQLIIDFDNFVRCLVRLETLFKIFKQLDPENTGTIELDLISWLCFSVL
T2 sequence (P04632 1-268 partner): T1 sequence (P04632 1-268 partner)
Experimental: as §1, §2

[3] = tested on: Calpain in crude brain extracts; experiment: Ca2+-stimulated spectrin proteolysis in crude brain extracts (Example 2); type: biochemical; conditions: 100 μM
Procedure, shortened: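 Brain tissue was homogenized in 10 mM Tris pH 7.4, 0.32 M sucrose, 1 mM EGTA and 1 mM DTT, and nuclei and debris were removed. Calpain activity was scored as Ca^2+-stimulated proteolysis of endogenous spectrin.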

[4] = tested on: Calpain within platelets; experiment: Platelet membrane permeation assay, spectrin proteolysis (Examples 4A, 4B); type: cell-based, rat; conditions: for inhibition of Calpain within platelets: 100 μM, A23187 1 μM
Procedure, shortened: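 Rat (Sprague-Dawley) platelets at 10^7 cells/ml in HEPES buffer pH 7.4, preincubated 5 min with inhibitor, then 5 min with 1 μM A23187 to activate calpain. Spectrin proteolysis assessed by SDS-PAGE and anti-spectrin immunoblot, quantified by densitometry.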

[5] = tested on: Calpain; experiment: Kapp/[I] of other irreversible Calpain Inhibitors; type: biochemical
Source text: The kinetic constants of other irreversible Calpain Inhibitors include the following with Kapp /[I] in parentheses: E-64 (7500), E64-d (23000) and Z-leu-leu-tyr-CHN2 (230000). E-64 is commercially available from Sigma Chemical Co., and is shown here to be a poor inhibitor of Calpain.

[6] = target: T3, Calpain I from human erythrocytes (Homo sapiens, UniProt P07384); experiment: Calpain I Ki (Table 1B(i)); type: biochemical; conditions: Suc-Leu-Tyr-amidomethylcoumarin, HEPES pH 7.2
T3 construct: Calpain I from human erythrocytes and calpain II from rabbit were assayed using Suc-Leu-Tyr-AMC; from tissue; host or cells: human erythrocytes
T3 sequence (P07384 1-714): T1 sequence (P07384 1-714)
T3 sequence (P04632 1-268 partner): T1 sequence (P04632 1-268 partner)
Experimental: The Peptide Keto-Compounds are reversible inhibitors of Calpains and other thiol proteases. […] Cathepsin B from bovine spleen was assayed using Z-Lys-4-nitrophenylphosphate as substrate.
The Ki value for the inhibition of Calpains and cathepsin B by several Peptide Keto-Compounds are shown in μM (micromolar). The values for leupeptin, which is commercially available from Calbiochem of La Jolla, Calif., are shown for comparison.

- IC50 Calpain I [1]: no inhibition
- IC50 [2]: > 200 µM
SMILES: CC(C)(C)OC(=O)N[C@@H](Cc1ccccc1)C(=O)Nc1ccc2c(Cl)c(OCCCSC(=N)N)oc(=O)c2c1 [BOC-L-Phe-NH-CiTPrOIC, 7-(N-t-butyloxycarbonyl-L-phenylalanylamino)-4-chloro-3-(3-isothiureidopropoxy)isocoumarin]

- IC50 [1]: 700 µM
- IC50 [2]: 80 µM
SMILES: CC(=O)Nc1ccc2c(Cl)c(OCCCSC(=N)N)oc(=O)c2c1 [CH3 CONH-CiTPrOIC, 7-(acetylamino)-4-chloro-3-(3-isothiureidopropoxy)isocoumarin]
- inhibition of spectrin proteolysis in crude brain extracts [3]: significant inhibition
- inhibition of Calpain within platelets [4]: significant inhibition

SMILES: CCOC(=O)[C@H]1O[C@@H]1C(=O)N[C@@H](CC(C)C)C(=O)NCCC(C)C [Example E64-d, Loxastatin]
- Kapp/[I] Calpain [5]: 23000

SMILES: CC(C)C[C@H](NC(=O)[C@H]1O[C@@H]1C(=O)O)C(=O)NCCCCN=C(N)N [Example E-64, E-64, reference compound]
- Kapp/[I] Calpain [5]: 7500
- effect on intracellular (platelet) Calpain ([4]; concentration not given): little effect

- IC50 [1]: 80 µM
- IC50 [2]: 30 µM
SMILES: N=C(N)SCCCOc1oc(=O)c2cc(NC(=O)NCc3ccccc3)ccc2c1Cl [PhCH2 NHCONH-CiTPrOIC, 7-(benzylcarbamoylamino)-4-chloro-3-(3-isothiureidopropoxy)isocoumarin]
- inhibition of spectrin proteolysis in crude brain extracts [3]: significant inhibition
- inhibition of Calpain within platelets [4]: significant inhibition

- Ki [6]: 200 µM
SMILES: COC(=O)C(=O)C(C)NC(=O)C(C)NC(=O)C(C)NC(=O)OCc1ccccc1 (stereo not drawn) [Z-Ala-Ala-Ala-CO2 Me]

SMILES: CC(C)C[C@H](NC(=O)OCc1ccccc1)C(=O)N[C@@H](CC(C)C)C(=O)N[C@@H](Cc1ccc(O)cc1)C(=O)C=[N+]=[N-] [Z-leu-leu-tyr-CHN2] (HELM PEPTIDE1{[O=C(OCc1ccccc1)[*:2]].L.L.Y.[[N-]=[N+]=C[*:1]]}$$$$V2.0)
- Kapp/[I] Calpain [5]: 230000
